Measurements: ChEMBL document CHEMBL5506037, “Synthesis of Heterocyclic Ring-Fused Bisnoralcohol Derivatives as Novel Small-Molecule Antiosteoporosis Agents” (J Med Chem, 2024)
Calls of active or inactive are those of the source. No cut-off for these calls is given here.

Legend:
[1] = Cmax in ICR mouse at 10 mg/kg, po measured upto 24 hrs by LC-MS/MS analysis; type: ADME, organism-based; details: in vivo
[2] = Terminal elimination half life in ICR mouse at 1 mg/kg, iv measured upto 24 hrs by LC-MS/MS analysis; type: ADME, organism-based; details: in vivo, read-out: beta t1/2 (converted)
[3] = tested on: BMMC; experiment: Anti-osteoclastogenesis activity in M-CSF/RANKL-induced C57BL/6J mouse BMMC cells assessed as inhibition of Il1b gene expression by RNA sequencing analysis; type: functional, cell-based
[4] = tested on: BMMC; experiment: Anti-osteoclastogenesis activity in M-CSF/RANKL-induced C57BL/6J mouse BMMC cells assessed as inhibition of osteoclast differentiation at 1 uM incubated for 7 days by TRAP staining based analysis relative to control; type: functional; details: 168 h, time 7 day
[5] = AUC (0 to t) in ICR mouse at 10 mg/kg, po measured upto 24 hrs by LC-MS/MS analysis; type: ADME, organism-based; details: in vivo
[6] = Tmax in ICR mouse at 1 mg/kg, iv measured upto 24 hrs by LC-MS/MS analysis; type: ADME, organism-based; details: in vivo
[7] = tested on: BMMC; experiment: Anti-osteoclastogenesis activity in M-CSF/RANKL-induced C57BL/6J mouse BMMC cells assessed as inhibition of osteoclast differentiation at 0.1 uM incubated for 7 days by TRAP staining based analysis relative to control; type: functional; details: 168 h, time 7 day
[8] = Oral bioavailability in ICR mouse at 10 mg/kg measured upto 24 hrs by LC-MS/MS analysis; type: ADME, organism-based; details: in vivo
[9] = Total plasma clearance in ICR mouse at 1 mg/kg, iv measured upto 24 hrs by LC-MS/MS analysis; type: ADME, organism-based
[10] = tested on: BMMC; experiment: Anti-osteoclastogenesis activity in M-CSF/RANKL-induced C57BL/6J mouse BMMC cells assessed as reduction in CTSK mRNA expression at 0.05 to 5 uM measured after 2 days by RT-qPCR analysis; type: functional, cell-based; details: dose 0.05-5 µM, time 2.0 day
[11] = tested on: BMMC; experiment: Anti-osteoclastogenesis activity in M-CSF/RANKL-induced C57BL/6J mouse BMMC cells assessed as inhibition of FOS gene expression by RNA sequencing analysis; type: functional, cell-based
[12] = Cmax in ICR mouse at 1 mg/kg, iv measured upto 24 hrs by LC-MS/MS analysis; type: ADME, organism-based; details: in vivo
[13] = tested on: BMMC; experiment: Anti-osteoclastogenesis activity in M-CSF/RANKL-induced C57BL/6J mouse BMMC cells assessed as inhibition of Oscar gene expression by RNA sequencing analysis; type: functional, cell-based
[14] = tested on: Mus musculus; experiment: Anti-osteoporosis activity in ovariectomized C57BL/6 mouse assessed as prevention of bone loss by measuring recovery of trabecular number in femur at 0.6 mg/kg, ip administered every day for 6 weeks by 3D-imaging analysis relative to control; type: functional
[15] = tested on: BMMC; experiment: Anti-osteoclastogenesis activity in M-CSF/RANKL-induced C57BL/6J mouse BMMC cells assessed as inhibition of Itgb3 gene expression by RNA sequencing analysis; type: functional, cell-based
[16] = AUC (0 to infinity) in ICR mouse at 10 mg/kg, po measured upto 24 hrs by LC-MS/MS analysis; type: ADME, organism-based; details: in vivo
[17] = tested on: BMMC; experiment: Anti-osteoclastogenesis activity in M-CSF/RANKL-induced C57BL/6J mouse BMMC cells assessed as reduction in size and amount of osteoclasts by measuring reduction in F-actin ring formation incubated for 7 days by rhodamine-labeled phalloidin staining based fluorescence microscopic analysis; type: functional, cell-based; details: dose 0.05-0.5 µM, time 7.0 day
[18] = tested on: BMMC; experiment: Anti-osteoclastogenesis activity in M-CSF/RANKL-induced C57BL/6J mouse BMMC cells assessed as reduction in osteoclast generation at 0.05 uM incubated for 7 days by TRAP staining based analysis relative to control; type: functional; set-up: scale not given: the % may be the effect or the level left; details: time 7 day
[19] = tested on: BMMC; experiment: Anti-osteoclastogenesis activity in M-CSF/RANKL-induced C57BL/6J mouse BMMC cells assessed as inhibition of Traf6 gene expression by RNA sequencing analysis; type: functional, cell-based
[20] = tested on: BMMC; experiment: Potency index, ratio of bisnoralcohol IC50 to test compound IC50 for anti-osteoclastogenesis activity in M-CSF/RANKL-induced C57BL/6J mouse BMMC cells assessed as inhibition of osteoclast differentiation incubated for 7 days by TRAP staining based analysis; type: functional; details: time 7 day
[21] = tested on: BMMC; experiment: Anti-osteoclastogenesis activity in M-CSF/RANKL-induced C57BL/6J mouse BMMC cells assessed as inhibition of FCGR3 gene expression by RNA sequencing analysis; type: functional, cell-based
[22] = tested on: BMMC; experiment: Anti-osteoclastogenesis activity in M-CSF/RANKL-induced C57BL/6J mouse BMMC cells assessed as inhibition of osteoclast differentiation at early stage at 0.1 uM measured after 1 to 3 days by TRAP staining based analysis relative to control; type: functional; details: time 1-3 day
[23] = tested on: BMMC; experiment: Anti-osteoclastogenesis activity in M-CSF/RANKL-induced C57BL/6J mouse BMMC cells assessed as inhibition of lilra5 gene expression by RNA sequencing analysis; type: functional, cell-based
[24] = Tmax in ICR mouse at 10 mg/kg, po measured upto 24 hrs by LC-MS/MS analysis; type: ADME, organism-based; details: in vivo
[25] = tested on: Mus musculus; experiment: Anti-osteoporosis activity in ovariectomized C57BL/6 mouse assessed as prevention of bone loss by measuring reduction in osteoclast formation at 0.6 mg/kg, ip administered every day for 6 weeks by H and E staining based analysis; type: functional, organism-based
[26] = AUC (0 to t) in ICR mouse at 1 mg/kg, iv measured upto 24 hrs by LC-MS/MS analysis; type: ADME, organism-based; details: in vivo
[27] = Terminal elimination half life in ICR mouse at 10 mg/kg, po measured upto 24 hrs by LC-MS/MS analysis; type: ADME, organism-based; details: in vivo, read-out: beta t1/2 (converted)
[28] = tested on: BMMC; experiment: Anti-osteoclastogenesis activity in M-CSF/RANKL-induced C57BL/6J mouse BMMC cells assessed as reduction in MMP9 protein expression measured after 3 days by Western blot analysis; type: functional, cell-based; details: dose 0.05-5 µM, time 3.0 day
[29] = tested on: BMMC; experiment: Anti-osteoclastogenesis activity in M-CSF/RANKL-induced C57BL/6J mouse BMMC cells assessed as reduction in TRAP protein expression measured after 3 days by Western blot analysis; type: functional, cell-based; details: dose 0.05-5 µM, time 3.0 day
[30] = tested on: BMMC; experiment: Anti-osteoclastogenesis activity in M-CSF/RANKL-induced C57BL/6J mouse BMMC cells assessed as inhibition of osteoclast differentiation at late stage at 0.1 uM measured after 5 to 7 days by TRAP staining based analysis relative to control; type: functional; details: time 5-7 day
[31] = tested on: BMMC; experiment: Anti-osteoclastogenesis activity in M-CSF/RANKL-induced C57BL/6J mouse BMMC cells assessed as inhibition of osteoclast differentiation at mid-stage at 0.1 uM measured after 3 to 5 days by TRAP staining based analysis relative to control; type: functional; details: time 3-5 day
[32] = tested on: BMMC; experiment: Anti-osteoclastogenesis activity in M-CSF/RANKL-induced C57BL/6J mouse BMMC cells assessed as reduction in MMP9 mRNA expression at 0.05 to 5 uM measured after 2 days by RT-qPCR analysis; type: functional, cell-based; details: dose 0.05-5 µM, time 2.0 day
[33] = tested on: BMMC; experiment: Anti-osteoclastogenesis activity in M-CSF/RANKL-induced C57BL/6J mouse BMMC cells assessed as inhibition of CALCR gene expression by RNA sequencing analysis; type: functional, cell-based
[34] = Cytotoxicity against M-CSF induced C57BL/6J mouse BMMC cells assessed as cell viability at 10 uM incubated for 48 hrs by CCK-8 assay relative to control; type: toxicity, cell-based; details: read-out: Activity

Cmax [1]: 230 ng/mL
half-life [2]: 1.76 h
AUC(0-t) at 24 h [5]: 654 ng·h/mL
Tmax [6]: 4.8 min
bioavailability [8]: 13.1%
clearance [9]: 31.7 mL/min/kg
Cmax [12]: 484 ng/mL
AUC(0-inf) [16]: 688 ng·h/mL
Tmax [24]: 0.67 h
AUC(0-t) at 24 h [26]: 509 ng·h/mL
half-life [27]: 1.79 h
SMILES: CCNC(=O)[C@@H](C)[C@H]1CC[C@H]2[C@@H]3CC=C4C(C)(C)c5nnsc5C[C@]4(C)[C@H]3CC[C@]12C
Activity [3]: Active
inhibition at 1 µM [4]: 100%
inhibition at 0.1 µM [7]: 82.8%
Activity [10]: Active
Activity [11]: Active
Activity [13]: Active
Activity [14]: 48.64%
Activity [15]: Active
Activity [17]: Dose-Dependent Effect
Activity [18]: 50%
Activity [19]: Active
Ratio IC50 [20]: 45
Activity [21]: Active
inhibition at 0.1 µM [22]: 73.1%
Activity [23]: Active
Activity [25]: Active
Activity [28]: Dose-Dependent Effect
Activity [29]: Dose-Dependent Effect
inhibition at 0.1 µM [30]: 10.9%
inhibition at 0.1 µM [31]: 40.2%
Activity [32]: Active
Activity [33]: Active
viability at 48 h, 10 µM [34]: ≥ 100%
